This is an account of results in patent publication US10407399B2, “Ion-activated photolabile compounds” (HOWARD HUGHES MEDICAL INSTITUTE, priority 2015, dated 2019).

Structures are written as SMILES. “And” between values parts separate entries of the source, which are not always exact repeats. Equal values may be shown once.

Data set [1] is described as follows: Determination of photochemical quantum yield (365 nm irradiation, fluorescence of released fluorophore). In kind it is physicochemical. Particulars: for photochemical quantum yield (Φ) in the presence of Ca^2+: 10 mM CaCl2, 30 mM MOPS pH 7.2, 100 mM KCl; for photochemical quantum yield (Φ) in the presence of Ca^2+ / photochemical quantum yield (Φ) in the absence of Ca^2+: 365 nm; for photochemical quantum yield (Φ) in the absence of Ca^2+: 10 mM EGTA, 30 mM MOPS pH 7.2, 100 mM KCl; for enhancement in photochemical quantum yield upon Ca^2+ binding: presence vs absence of Ca^2+. The method, then: (§1) All measurements were taken at ambient temperature (23±2° C.). […] Spectroscopy was performed using 1-cm path length quartz or polymethacrylate cuvettes (Starna or Fisher). Absorption measurements were recorded on a Cary Model 100 spectrometer (Varian). Fluorescence measurements spectra were recorded on a Cary Eclipse fluorometer (Varian). Buffer pH was adjusted with KOH. Curve fitting was accomplished with GraphPad Prism 5.
Photochemistry was performed in 1-cm path length/3.5 mL quartz cuvettes (Starna) in a Luzchem LZC 4V photoreactor equipped with 365 nm UV lamps, a carousel, and a timer. The irradiation was determined by potassium ferrioxalate actinometry.^3 A solution of 60 mM K3Fe(C2O4)3 was irradiated using the photoreactor setup. Released Fe^2+ was determined by complexometry with 1,10 phenanthroline. Using the known photochemical quantum yield of this process, we determined the photon flux (I)=[…]. Samples (10 μM, 3.5 mL) were irradiated in either zero calcium buffer (30 mM MOPS pH 7.2, 10 mM EGTA, 100 mM KCl) or calcium-containing buffer (30 mM MOPS pH 7.2, 10 mM CaCl2, 100 mM KCl) and a small aliquot (30 μL) was removed and diluted 100-fold in matching buffer. The fluorescence of these samples was then measured (coumarin 402: λex/λem=402/447 nm; Tokyo Green compound S13: λex/λem=496/520 nm). The quantum yield (Φ, mol/ein) was determined by fitting a plot of fluorescence vs. irradiation time to a one-phase association described by equation 1: Ft=Fmax−Fmax(e^−IσΦt) (1) where Fmax=maximal fluorescence, t=time (min), Ft=fluorescence at time t, I=irradiation (ein/min·cm^2), and σ=decadic extinction coefficient (cm^2/mol; 1000-fold higher than the value with units of M^−1 cm^−1 based on cuvette geometry). For compound 402 we determined Φ=4.8±0.2% (mean±SE) in the presence of 10 mM Ca^2+ and Φ=0.0079±0.0003% in the presence of 10 mM EGTA (FIG. 19B). For compound S13 we found Φ=1.63±0.05% in the presence of 10 mM Ca^2+ and Φ=0.0110±0.0004% in the presence of 10 mM EGTA (FIG. 20A).

A short description of data set [2]: Absorption spectrum in buffers containing varying [Ca^2+]. In kind it is physicochemical.
Description: The absorption spectrum of 402 was first examined in buffers containing varying [Ca^2+] (FIG. 19A). […] A small (<5%) but significant increase in absorption around 350 nm was also observed when calcium ion concentration is raised. However, the coumarin moiety dominates absorption in the UV with an extinction coefficient (e)=2.4×10^4 M^−1 cm^−1 at 350 nm. These absorbance changes indicate that chelation of calcium causes a switch from the colored quinoid form to the UV-absorbing aromatic form (FIG. 3).
as §1

Data set [3] deals with cultured neurons. In words: Light-gated integration of Ca^2+ evoked by electrical stimulation. Particulars: for rate k of increase in cellular fluorescence versus irradiation time: n=20. It counts as cell-based, rat. The method, then:
The present compound was then utilized to measure calcium ion changes in neurons evoked by electrical activity. Low-affinity reversible Ca^2+ indicators are advantageous for use in biological systems as their low buffering capacity preserves native calcium ion dynamics. Nevertheless, poor signal-to-background ratios of such indicators may restricts their utility to subcellular compartments undergoing extremely high calcium flux (e.g., dendritic spines). […] Cells were incubated with AM ester 403 and subjected to the photoactivation imaging protocol. In one population of cells neuronal action potential firing was elicited by field stimulation at 80 Hz.
(§2) HEK293T/17 cells (ATCC) were cultured according to instructions in poly-D-lysine-coated 24-well CellBind plates (Corning) in Dulbecco's modified eagle medium (DMEM; Invitrogen) supplemented with 10% v/v fetal bovine serum (FBS; Invitrogen) and maintained at 37° C. in a humidified 5% CO2 v/v environment. Primary rat hippocampal neurons were prepared and cultured as described previously. Imaging buffer for HEK293T/17 cells consisted of Dulbecco's phosphate buffered saline (DPBS; Invitrogen). Imaging buffer for cultured neurons consisted of: 145 mM NaCl, 2.5 KCl, 10 mM glucose, 10 mM HEPES pH 7.4, 2 mM CaCl2, and 1 mM MgCl2. To load cells with the dosimeter, a stock solution of 403 (1 mM) in DMSO containing 10% w/v Pluronic F-127 (Sigma) was added to a final concentration of 10 μM in imaging buffer. Cells were incubated in this solution for 1 h at 37° C., after which the cells were washed with imaging buffer (3×) and imaged. The final imaging buffer wash for cultured neurons additionally contained pharmacological agents (10 μM CNQX, 10 μM (R)-CPP, 10 μM gabazine, and 1 mM (S)-MCPG; Tocris) to block spontaneous cellular activity.
(§3) Cells were imaged on a Olympus IX-81 microscope using a 10× or 20× objective and a DAPI filter set (Semrock DAPI-5060C-000; excitation: 352-402 nm, dichroic cutoff: 409 nm, emission: 417-477 nm) filtering a mercury arc lamp. Excitation/photoactivation light was attenuated using a neutral density filter giving a light intensity of 60 mW/cm^2. To raise intracellular calcium ion levels (FIGS. 19B, 21B, and 22B), cells were incubated with 10 μM ionomycin (Sigma) and 4 mM CaCl2 for 2 min prior to imaging.
Cultured neurons loaded with compound 403 were stimulated electrically to induce action potential firing at 80 Hz for one second prior to and during illumination with excitation/photoactivation light. A Grass S48 Stimulator (Grass Technologies) was used with a custom-built platinum wire field stimulation electrode.

In data set [4] the test system is cultured hippocampal neurons. The data set is described as follows: Live cell photoactivation imaging of neurons with or without ionomycin. Particulars: for rate k of cellular fluorescence increase versus irradiation time: 10 μM, 1 h loading, 365 nm. It counts as cell-based, rat. The method, then:
The utility of the embodied system was then observed in a cellular context. The hexa-acetoxymethyl (AM) ester 403 of compound 402 was prepared (FIG. 8). This membrane-permeant compound enabled loading of cultured hippocampal neurons with the light-gated chemodosimeter. The overlap of the photouncaging wavelength (λ=351 nm) and the excitation spectra (λmax=402 nm) of the coumarin allowed simultaneous imaging and activation with a single light source centered at 365 nm.
as §2, §3

Data set [5] is described as follows: Determination of Kd from fluorescence after photoactivation as a function of [Ca^2+]. It counts as binding. Particulars: methoxy replaced with pyrrolidine, versus 402; readout not stated. The method, then:
as §1
For [Ca^2+]<40 μM, the free calcium concentration was controlled by a commercial EGTA buffer system (Invitrogen). […] For [Ca^2+]>40 μM, buffers were prepared with 1 mM EGTA and excess CaCl2 in 30 mM MOPS pH 7.2 and 100 mM KCl. Different buffer solutions containing 100 nM of 402 or S13 were irradiated in clean glass vials for 1 min using the photoreactor setup described above. The samples were then transferred to a black, clear bottom, 96-well polystyrene microplate with a nonbinding surface coating (Corning). Fluorescence was read from the bottom on a FlexStation3 fluorescence microplate reader (Molecular Devices; for coumarin 402: λex/λem=402/447 nm; for Tokyo Green compound S13: λex/λem=496/520 nm). The plot of fluorescence vs. [Ca^2+] was fit to one site-specific binding curve to determine the Kd. Found: 28.3±0.6 μM (±SE) for 402 and 28.0±0.8. μM for S13.

Consider `COc1ccc(N(CC(=O)O)CC(=O)O)c(OCCOc2cc([N+](=O)[O-])c(COc3ccc4cc(C(=O)NC5CCC(N(CC(=O)O)CC(=O)O)CC5)c(=O)oc4c3)cc2N(CC(=O)O)CC(=O)O)c1` (stereo not shown) [compound 402, 2,2′((2-(2-(2-(Bis(carboxymethyl)amino)-4-(((3-(((1r,4r)-4-(bis(carboxymethyl)amino)cyclohexyl)carbamoyl)-2-oxo-2H-chromen-7-yl)oxy)methyl)-5-nitrophenoxy)ethoxy)-4-methoxyphenyl)azanediyl)diacetic acid], for which, in data set [1], the “photochemical quantum yield (Φ) in the presence of Ca^2+” value is 4.8% and 4.8±0.2%; the “photochemical quantum yield (Φ) in the absence of Ca^2+” value is 0.008% and 0.0079±0.0003%; the “enhancement in photochemical quantum yield upon Ca^2+ binding” value is on record as 600 fold. Besides, in data set [1] (fluorescence of released coumarin vs 365 nm irradiation time, 10 mM CaCl2 or 10 mM EGTA), the “Ca^2+ dependence of uncaging photochemistry” value is given as “efficient photochemistry was observed only in the presence of calcium”. Besides, in data set [2], the “increase in absorption around 350 nm when calcium ion concentration is raised” value is given as less than 5% and the “visible absorption at 430 nm as [Ca^2+] increases” value is listed as “dramatic decrease”. The extinction coefficient in data set [2] (at 350 nm) stood at 24000 M⁻¹ cm⁻¹.
`COc1ccc(N(CC(=O)OCOC(C)=O)CC(=O)OCOC(C)=O)c(OCCOc2cc([N+](=O)[O-])c(COc3ccc4cc(C(=O)N[C@H]5CC[C@H](N(CC(=O)OCOC(C)=O)CC(=O)OCOC(C)=O)CC5)c(=O)oc4c3)cc2N(CC(=O)OCOC(C)=O)CC(=O)OCOC(C)=O)c1` [compound 403, Bis(acetoxymethyl) 2,2′-((2-(2-(2-(bis(2-(acetoxymethoxy)-2-oxoethyl)amino)-4-(((3-(((1r,4r)-4-(bis(2-(acetoxymethoxy)-2-oxoethyl)amino)cyclohexyl)carbamoyl)-2-oxo-2H-chromen-7-yl)oxy)methyl)-5-nitrophenoxy)ethoxy)-4-methoxyphenyl)azanediyl)diacetate]: the “permanent increase in cellular fluorescence” value in data set [3] (field stimulation at 80 Hz) was 200%. Further, in data set [3] (field stimulation at 80 Hz), the “rate increase in cellular fluorescence relative to unstimulated cells” value is 4 fold. The “rate k of increase in cellular fluorescence versus irradiation time” value in data set [3] (with field stimulation at 80 Hz) stood at 0.133 s⁻¹; in data set [3] (without electrical stimulation), 0.0325 s⁻¹. In addition, in data set [4] (cells pretreated with ionomycin vs control cells), the “increase in the accumulation of cellular fluorescence” value amounted to 40 fold. Moreover, in data set [4] (control cells without ionomycin), the “fluorescence increase on illumination of control cells” value is given as “did not elicit significant fluorescence increase”. In addition, the “rate k of cellular fluorescence increase versus irradiation time” value in data set [4] (ionomycin-treated neurons) worked out at 0.240 s⁻¹; in data set [4] (untreated neurons) it was 0.0060 s⁻¹.
On to `O=C(O)CN(CC(=O)O)c1ccc(N2CCCC2)cc1OCCOc1cc([N+](=O)[O-])c(COc2ccc3cc(C(=O)NC4CCC(N(CC(=O)O)CC(=O)O)CC4)c(=O)oc3c2)cc1N(CC(=O)O)CC(=O)O` (stereo not shown) [compound of FIG. 14, where R═H, 2,2′-((2-(2-(2-(Bis(carboxymethyl)amino)-4-(((3-(((1r,4r)-4-(bis(carboxymethyl)amino)cyclohexyl)carbamoyl)-2-oxo-2H-chromen-7-yl)oxy)methyl)-5-nitrophenoxy)ethoxy)-4-(pyrrolidin-1-yl)phenyl)azanediyl)diacetic acid], for which the “effect of the modification on calcium affinity” value in data set [5] is reported as “did not increase”.
With `COc1ccc(-c2c3ccc(=O)cc-3oc3cc(OCc4cc(N(CC(=O)O)CC(=O)O)c(OCCOc5cc(OC)ccc5N(CC(=O)O)CC(=O)O)cc4[N+](=O)[O-])ccc23)c(C)c1` [compound S13, 2,2′-((2-(2-(2-(Bis(carboxymethyl)amino)-4-(((9-(4-methoxy-2-methylphenyl)-3-oxo-3H-xanthen-6-yl)oxy)methyl)-5-nitrophenoxy)ethoxy)-4-methoxyphenyl)azanediyl)diacetic acid], in data set [1], the “photochemical quantum yield (Φ) in the presence of Ca^2+” value was 1.6% and 1.63±0.05%; the “photochemical quantum yield (Φ) in the absence of Ca^2+” value was 0.011% and 0.0110±0.0004%; the “enhancement in photochemical quantum yield upon Ca^2+ binding” value is reported as 150 fold.
